This is an account of results in patent US20260364184A1, “COMPOUND BASED ON OXOISOINDOLINYL-SUBSTITUTED TETRAHYDROPYRIMIDINE-DIONE AND USE THEREOF” (GLUETACS THERAPEUTICS (SHANGHAI) CO., LTD., priority 2023, published 2026).

The subject of assay [1] is Human myeloid monocytic leukemia cell line (MV-4-11). Kind of assay: Inhibition of MV-4-11 cell proliferation (CellTiter luminescent viability). To be noted: Homo sapiens, MV4-11, Table IG2, FAK inhibitor-based, 96 hours; for inhibition at 0.01 µM: MV-4-11, 10 nM, read-out: Inhibition Rate at 10 nM (%); for inhibition at 0.5 µM: MV-4-11, 500 nM, read-out: Inhibition Rate at 500 nM (%). In kind it is cell-based. The gist of the method:
(§1)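 IC50 is fitted from luminescent viability (CellTiter-Meiluncell) curves. Nine-point, 5-fold dilution series (top stock 2000 μM) are added at 0.5 μL per 100 μL medium to cells plated the day before, with growth at 37 °C and 5% CO2.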

Assay [2] deals with Human breast cancer cell line (MDA-MB-231). Kind of assay: Inhibition of MDA-MB-231 cell proliferation (CellTiter luminescent viability). Type of assay: cell-based. To be noted: Table IG3, FAK inhibitor-based, 96 hours; for inhibition at 0.01 µM: MDA-MB-231, 10 nM, read-out: Inhibition Rate at 10 nM (%); for inhibition at 0.5 µM: MDA-MB-231, 500 nM, read-out: Inhibition Rate at 500 nM (%). As for the experimental part: The tumor cells used herein were cultured in a cell culture medium listed in table 3 at 37 °C in an incubator with 5% CO2. Prior to experimentation, all cell lines used were correctly identified by STR profiling, and tested negative for mycoplasma contamination using a mycoplasma detection kit through routine screenings.
The IC50 values of the compounds of the present disclosure (including the compounds in Table 1, Table 2, and Examples 1-468) were determined using the CellTiter-Meiluncell Luminescent Cell Viability Assay Kit from Dalian Meilun Biotech Co., Ltd. The detailed procedure is as follows: Tumor cells were seeded in 96-well cell culture plates at the densities specified in Table 4. On the following day, the test compounds of the present disclosure were subjected to serial dilution. The dilution can be performed according to one of the following two methods: • (1) The first dilution method: The test compounds of the present disclosure (including the compounds in Table 1, Table 2, and Examples 1-468) were subjected to 5-fold serial dilutions starting from a highest concentration of 2000 μM, resulting in a total of 9 concentrations from high to low (2000, 400, 80, 16, 3.2, 0.64, 0.128, 0.0256, 0.00512 μM). Subsequently, 0.5 μL of the test compound dilution was transferred into the 96-well plate containing the cells, with each well containing 100 μL of cell culture medium. […] Into the 96-well plate, the diluted test compounds and corresponding detection reagents were added, resulting in final test compound concentrations of 500 nM and 10 nM, respectively. The experimental procedure is described below using the diluted 2 μM test compound as an example.
0.5 μL of the aforementioned diluted compound of the present disclosure (including the compounds in Table 1, Table 2, and Examples 1-468) was added to the seeded cells in 100 μL of medium, yielding a final test compound concentration of 10 nM. After the cells were treated with the compounds of the present disclosure for a specified period, the cell viability assay reagent was added to the culture medium according to the kit's instructions to determine cell viability. […] All controls were treated using the same procedure as the compounds of the present disclosure. The growth inhibition curves for the compounds of the present disclosure were plotted using Prism GraphPad software, and the IC50 values were calculated therefrom.

For another assay, the target named is T1, FAK (Homo sapiens, UniProt Q05397).
T1 construct: expression of target proteins in cells; endogenous in cells
T1 sequence (Q05397 whole entry): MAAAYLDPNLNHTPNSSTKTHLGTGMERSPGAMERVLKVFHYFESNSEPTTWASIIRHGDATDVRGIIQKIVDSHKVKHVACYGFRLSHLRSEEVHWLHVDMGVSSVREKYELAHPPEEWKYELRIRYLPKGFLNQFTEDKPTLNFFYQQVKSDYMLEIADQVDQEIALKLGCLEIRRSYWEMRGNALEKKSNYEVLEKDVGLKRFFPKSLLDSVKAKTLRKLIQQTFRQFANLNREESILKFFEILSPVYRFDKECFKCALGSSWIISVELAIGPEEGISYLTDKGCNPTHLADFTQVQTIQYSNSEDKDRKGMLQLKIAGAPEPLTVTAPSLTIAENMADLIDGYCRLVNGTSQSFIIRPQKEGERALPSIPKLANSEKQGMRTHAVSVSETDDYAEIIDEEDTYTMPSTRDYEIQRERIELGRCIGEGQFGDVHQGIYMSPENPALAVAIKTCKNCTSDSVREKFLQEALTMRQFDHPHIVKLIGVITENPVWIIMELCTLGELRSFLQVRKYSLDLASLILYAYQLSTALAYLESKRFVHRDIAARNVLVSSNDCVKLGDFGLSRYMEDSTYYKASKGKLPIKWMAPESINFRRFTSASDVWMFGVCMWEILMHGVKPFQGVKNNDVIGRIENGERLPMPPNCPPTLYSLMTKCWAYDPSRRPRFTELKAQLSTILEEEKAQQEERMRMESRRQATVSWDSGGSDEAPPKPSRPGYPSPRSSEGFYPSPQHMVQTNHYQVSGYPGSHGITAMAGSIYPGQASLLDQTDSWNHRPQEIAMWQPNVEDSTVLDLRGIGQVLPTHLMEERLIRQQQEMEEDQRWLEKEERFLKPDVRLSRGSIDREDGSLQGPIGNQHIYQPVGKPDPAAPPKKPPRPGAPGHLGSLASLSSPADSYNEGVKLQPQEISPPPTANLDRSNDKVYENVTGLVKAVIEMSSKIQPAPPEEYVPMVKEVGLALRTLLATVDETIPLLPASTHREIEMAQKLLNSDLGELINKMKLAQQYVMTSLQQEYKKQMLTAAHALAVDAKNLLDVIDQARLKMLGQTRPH
Nature of the assay: Western blot degradation of FAK. Type of assay: cell-based. To be noted: A549 Cell; 24 hours. As for the experimental part:
(§2) Conventional Western blot assay was performed to evaluate the effects of the compounds of the present disclosure on the expression of target proteins in cells.
(§3) (1) Cell Seeding and Protein Harvesting: The selected cells were processed according to the cell seeding procedure and protein harvesting procedure in Table II-2.
(§4) (2) To the collected supernatant, 5×SDS sample loading buffer was added, followed by denaturation at 95 °C for 5 minutes. The denatured samples were then separated by SDS-PAGE electrophoresis on a polyacrylamide gel. Proteins were transferred to a nitrocellulose membrane (0.45 μm NC membrane), blocked with blocking buffer at room temperature for 1 hour, and subjected to antibody incubation and development procedures according to the antibody manufacturer's instructions (Cell Signaling Technology).
(§5) Half-Maximal Degradation Concentration value (the drug concentration required for degrading proteins by 50%, abbreviated as DC50) reads method: comparing the grayscale values of Western blot bands from drug-treated samples with those from blank DMSO-treated controls, and identifying the drug concentration range at which the grayscale value is half that of the DMSO-treated control bands.
(§6) DC50 values can be calculated using ImageJ software to measure grayscale values of Western blot bands from drug-treated samples. The concentration-response curve is fitted to estimate the drug concentration corresponding to half the grayscale value.
(§7) Target protein remaining (%) refers to the percentage of target protein remaining in cells after treatment with protein degrader compounds.
(§8) Calculation method for target protein remaining (%): Use ImageJ software to measure grayscale values of Western blot bands from drug (protein degrader)-treated samples. The grayscale value of drug-treated bands is divided by that of internal control protein bands, and the resulting quotient is normalized to obtain the relative percentage of remaining target protein after protein degrader treatment.
(§9) Target protein degradation rate (%)=1−target protein remaining (%).
Background: A western blot detects proteins with antibodies after separation by electrophoresis.

Assay [3] has as its system Human Multiple myeloma cell line (MM.1S). Nature of the assay: Inhibition of MM.1S cell proliferation (CellTiter luminescent viability). In kind it is cell-based. As to conditions: Homo sapiens, MM1.S, Table IG1, FAK inhibitor-based, 96 hours; for inhibition at 0.01 µM: 10 nM, read-out: Inhibition Rate at 10 nM (%); for inhibition at 0.5 µM: 500 nM, read-out: Inhibition Rate at 500 nM (%). The gist of the method:
as §1

Assay [4] has as its target T2, human Cereblon WT GST-tagged protein (CRBN) (Homo sapiens, UniProt Q96SW2).
T2 construct: purchased CISBIO 64BDCRBNPEH
Nature of the assay: CRBN binding by HTRF (Cereblon binding kit). Summed up: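 GST-tagged human Cereblon WT was incubated 3 h at room temperature with compound, thalidomide-Re tracer and Eu anti-GST antibody. Final compound concentrations were 10 to 0.00064 µM (7 points) or 2 and 0.5 µM. Inhibition rate was calculated from HTRF 665/620 nm ratios versus solvent and blank controls.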
Background: In TR-FRET formats the signal depends on donor and acceptor labels being close together.

The next assay deals with T3, EZH2 (Homo sapiens, UniProt Q15910+Q96SW2).
T3 construct: expression of target proteins in cells; endogenous in cells
T3 sequence (Q15910 whole entry): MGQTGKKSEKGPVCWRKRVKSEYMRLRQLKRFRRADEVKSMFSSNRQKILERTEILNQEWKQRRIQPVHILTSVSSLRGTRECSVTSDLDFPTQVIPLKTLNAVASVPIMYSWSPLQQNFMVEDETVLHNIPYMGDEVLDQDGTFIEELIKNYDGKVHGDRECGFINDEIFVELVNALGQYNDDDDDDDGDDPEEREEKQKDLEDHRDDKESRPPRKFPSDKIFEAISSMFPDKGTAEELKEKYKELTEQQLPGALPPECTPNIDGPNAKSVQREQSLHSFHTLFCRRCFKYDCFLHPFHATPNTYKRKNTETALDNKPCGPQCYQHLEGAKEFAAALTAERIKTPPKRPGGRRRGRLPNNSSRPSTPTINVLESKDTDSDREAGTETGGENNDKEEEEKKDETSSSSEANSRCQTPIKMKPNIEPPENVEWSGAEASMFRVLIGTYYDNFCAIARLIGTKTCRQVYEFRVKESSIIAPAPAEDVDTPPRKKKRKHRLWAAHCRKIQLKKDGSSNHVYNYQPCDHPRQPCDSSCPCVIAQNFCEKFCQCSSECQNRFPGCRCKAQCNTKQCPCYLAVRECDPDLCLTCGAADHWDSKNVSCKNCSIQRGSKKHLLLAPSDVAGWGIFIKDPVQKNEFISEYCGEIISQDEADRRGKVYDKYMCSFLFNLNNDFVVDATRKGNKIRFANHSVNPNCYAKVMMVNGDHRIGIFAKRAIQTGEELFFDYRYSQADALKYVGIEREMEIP
T3 sequence (O75530 whole entry partner): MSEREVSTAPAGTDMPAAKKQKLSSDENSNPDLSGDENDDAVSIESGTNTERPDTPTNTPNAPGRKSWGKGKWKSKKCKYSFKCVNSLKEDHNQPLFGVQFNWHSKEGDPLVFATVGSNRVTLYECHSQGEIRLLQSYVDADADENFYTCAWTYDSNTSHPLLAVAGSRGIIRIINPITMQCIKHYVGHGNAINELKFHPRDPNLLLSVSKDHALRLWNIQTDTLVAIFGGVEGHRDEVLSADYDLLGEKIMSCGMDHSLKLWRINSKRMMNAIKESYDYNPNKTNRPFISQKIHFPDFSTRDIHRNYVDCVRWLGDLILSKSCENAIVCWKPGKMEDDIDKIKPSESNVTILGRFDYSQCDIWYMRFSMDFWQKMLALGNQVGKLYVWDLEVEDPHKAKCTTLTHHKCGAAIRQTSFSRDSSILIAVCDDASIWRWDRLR
T3 sequence (Q15022 whole entry partner): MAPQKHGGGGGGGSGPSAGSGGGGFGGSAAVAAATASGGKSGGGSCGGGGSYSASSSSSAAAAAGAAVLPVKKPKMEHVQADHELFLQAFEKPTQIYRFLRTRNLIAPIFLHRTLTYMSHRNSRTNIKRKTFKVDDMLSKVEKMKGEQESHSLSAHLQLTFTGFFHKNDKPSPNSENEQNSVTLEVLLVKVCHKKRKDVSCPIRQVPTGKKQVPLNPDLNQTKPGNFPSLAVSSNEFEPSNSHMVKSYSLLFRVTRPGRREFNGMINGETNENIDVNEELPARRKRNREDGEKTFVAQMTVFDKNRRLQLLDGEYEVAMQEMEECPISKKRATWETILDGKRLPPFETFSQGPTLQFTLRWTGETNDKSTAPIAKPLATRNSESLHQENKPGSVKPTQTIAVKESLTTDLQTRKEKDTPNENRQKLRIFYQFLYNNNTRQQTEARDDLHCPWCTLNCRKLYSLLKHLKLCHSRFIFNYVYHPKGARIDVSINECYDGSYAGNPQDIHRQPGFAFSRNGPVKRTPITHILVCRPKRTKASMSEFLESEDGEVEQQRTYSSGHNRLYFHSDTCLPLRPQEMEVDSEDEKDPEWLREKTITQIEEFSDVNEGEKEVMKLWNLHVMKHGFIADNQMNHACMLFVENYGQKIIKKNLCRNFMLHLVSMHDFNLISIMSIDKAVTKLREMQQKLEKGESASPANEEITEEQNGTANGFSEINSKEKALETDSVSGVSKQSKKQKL
T3 sequence (Q96SW2 whole entry): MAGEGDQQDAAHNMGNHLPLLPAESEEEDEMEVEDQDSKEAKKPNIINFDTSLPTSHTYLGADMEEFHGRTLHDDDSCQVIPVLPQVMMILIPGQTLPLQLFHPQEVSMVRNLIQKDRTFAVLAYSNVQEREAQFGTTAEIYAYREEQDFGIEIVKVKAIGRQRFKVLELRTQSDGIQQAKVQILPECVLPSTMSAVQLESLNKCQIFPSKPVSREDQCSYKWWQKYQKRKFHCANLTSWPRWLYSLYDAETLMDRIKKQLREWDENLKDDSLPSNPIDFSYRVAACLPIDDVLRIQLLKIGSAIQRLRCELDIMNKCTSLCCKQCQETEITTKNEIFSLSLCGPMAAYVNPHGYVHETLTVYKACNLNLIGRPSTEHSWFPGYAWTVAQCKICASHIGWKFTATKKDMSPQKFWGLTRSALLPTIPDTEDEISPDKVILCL
T3 sequence (Q16531 whole entry partner): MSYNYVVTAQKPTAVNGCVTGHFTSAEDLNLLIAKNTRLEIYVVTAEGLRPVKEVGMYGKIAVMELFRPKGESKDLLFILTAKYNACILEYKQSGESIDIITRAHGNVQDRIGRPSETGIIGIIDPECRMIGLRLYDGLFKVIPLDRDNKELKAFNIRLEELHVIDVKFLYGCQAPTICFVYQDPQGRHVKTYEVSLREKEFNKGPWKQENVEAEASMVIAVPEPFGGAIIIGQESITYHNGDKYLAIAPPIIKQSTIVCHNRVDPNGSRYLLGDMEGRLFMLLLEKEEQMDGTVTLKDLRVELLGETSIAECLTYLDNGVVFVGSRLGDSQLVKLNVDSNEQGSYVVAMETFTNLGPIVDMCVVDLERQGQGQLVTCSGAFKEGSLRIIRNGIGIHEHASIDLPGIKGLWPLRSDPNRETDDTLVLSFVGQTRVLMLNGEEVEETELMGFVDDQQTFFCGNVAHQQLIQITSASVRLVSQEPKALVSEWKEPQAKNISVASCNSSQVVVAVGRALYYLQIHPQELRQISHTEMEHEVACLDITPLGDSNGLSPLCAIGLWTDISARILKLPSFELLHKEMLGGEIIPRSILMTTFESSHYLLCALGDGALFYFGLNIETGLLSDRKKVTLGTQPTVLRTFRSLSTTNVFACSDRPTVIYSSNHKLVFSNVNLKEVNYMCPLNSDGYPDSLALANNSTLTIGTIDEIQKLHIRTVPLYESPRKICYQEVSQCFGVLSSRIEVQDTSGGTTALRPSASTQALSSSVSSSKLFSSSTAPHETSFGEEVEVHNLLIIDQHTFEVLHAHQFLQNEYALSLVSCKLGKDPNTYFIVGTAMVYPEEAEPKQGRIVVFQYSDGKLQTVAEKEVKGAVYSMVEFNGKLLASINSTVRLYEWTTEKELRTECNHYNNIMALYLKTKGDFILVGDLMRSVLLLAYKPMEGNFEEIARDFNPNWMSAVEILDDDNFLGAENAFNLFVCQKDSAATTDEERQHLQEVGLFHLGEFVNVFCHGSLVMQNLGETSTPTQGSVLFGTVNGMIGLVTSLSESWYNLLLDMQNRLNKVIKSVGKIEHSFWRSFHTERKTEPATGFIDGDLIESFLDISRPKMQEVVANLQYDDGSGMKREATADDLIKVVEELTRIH
Nature of the assay: Western blot degradation of EZH2. In kind it is cell-based. As to conditions: hPBMC Cell; 24 hours. As for the experimental part: as §2, §3, §4, §5, §6, §7, §8, §9

T2 sequence (Q96SW2 whole entry): as the sequence (Q96SW2 whole entry) above

Consider `CN(c1nccnc1CNc1nc(Nc2ccc(N3CCN(CC4CCN(c5ccc6c(c5)C(=O)N(N5CCC(=O)NC5=O)C6=O)CC4)CC3)cc2)ncc1C(F)(F)F)S(C)(=O)=O` [GT-07468, N-(3-(((2-((4-(4-((1-(2-(2,4-dioxotetrahydropyrimidin-1(2H)-yl)-1,3-dioxoisoindolin-5-yl)piperidin-4-yl)methyl)piperazin-1-yl)phenyl)amino)-5-(trifluoromethyl)pyrimidin-4-yl)amino)methyl)pyrazin-2-yl)-N-methylmethanesulfonamide], for which the values for the inhibition at 0.01 µM in assay [1], in assay [2] and in assay [3] were 30 to 40%, 20 to 30% and 20 to 30%, respectively. Besides, the inhibition at 0.5 µM in assay [1] lay within 80 to 100%; in assay [2], 50 to 60%; in assay [3] it was 80 to 100%. Besides, the “Degradation of substrate protein FAK (substrate protein remaining %)” value on FAK is listed as “A (0%≤substrate protein remaining %≤80%)”.

On to `CN(c1nccnc1CNc1nc(Nc2ccc(N3CCN(CC4CCN(c5cccc6c5C(=O)N(N5CCC(=O)NC5=O)C6=O)CC4)CC3)cc2)ncc1C(F)(F)F)S(C)(=O)=O` [GT-07469, N-(3-(((2-((4-(4-((1-(2-(2,4-dioxotetrahydropyrimidin-1(2H)-yl)-1,3-dioxoisoindolin-4-yl)piperidin-4-yl)methyl)piperazin-1-yl)phenyl)amino)-5-(trifluoromethyl)pyrimidin-4-yl)amino)methyl)pyrazin-2-yl)-N-methylmethanesulfonamide], for which, in assay [1], the inhibition at 0.01 µM fell in the range of 0 to 5% and the inhibition at 0.5 µM fell in the range of 80 to 100%. In assay [2], the inhibition at 0.01 µM was in the range of 30 to 40% and the inhibition at 0.5 µM lay in the range of 50 to 60%. For the same compound, the “Degradation of substrate protein FAK (substrate protein remaining %)” value at FAK is given as “A (0%≤substrate protein remaining %≤80%)”.

For the compound `CS(=O)(=O)c1cccc(CNc2nc(Nc3ccc(N4CCN(Cc5ccc6c(c5)CN(N5CCC(=O)NC5=O)C6=O)CC4)cc3)ncc2C(F)(F)F)c1` [GT-07514, 1-(5-((4-(4-((4-((3-(methylsulfonyl)benzyl)amino)-5-(trifluoromethyl)pyrimidin-2-yl)amino)phenyl)piperazin-1-yl)methyl)-1-oxoisoindolin-2-yl)dihydropyrimidine-2,4 (1H,3H)-dione], in assay [1], the inhibition at 0.01 µM lay in the range of 30 to 40% and the inhibition at 0.5 µM lay in the range of 80 to 100%. Further, the “Inhibition Rate at 0.5 μM (%)” value in assay [4] (0.5 μM) was “a3 (30% < a3 ≤ 40%)”. In assay [4] (2 μM), the “Inhibition Rate at 2 μM (%)” value is “a5 (53% < a5 ≤ 60%)”. Further, the “Degradation of substrate protein FAK (substrate protein remaining %)” value on FAK was “A (0%≤substrate protein remaining %≤80%)”.

With `CNC(=O)c1ccccc1Nc1cc(Nc2ccc(N3CCC(N(C)Cc4ccc5c(c4)CN(N4CCC(=O)NC4=O)C5=O)CC3)cc2OC)ncc1C(F)(F)F` [GT-07647, 2-((2-((4-(4-(((2-(2,4-dioxotetrahydropyrimidin-1(2H)-yl)-1-oxoisoindolin-5-yl)methyl)(methyl)amino)piperidin-1-yl)-2-methoxyphenyl)amino)-5-(trifluoromethyl)pyridin-4-yl)amino)-N-methylbenzamide], the values for the inhibition at 0.01 µM in assay [1], in assay [2] and in assay [3] were 40 to 50%, 40 to 50% and 20 to 30%, respectively. For the same compound, the inhibition at 0.5 µM in assay [1] is 80 to 100%; in assay [2], 70 to 80%; in assay [3] it was 40 to 60%. The “Degradation of substrate protein FAK (substrate protein remaining %)” value on FAK was “A (0%≤substrate protein remaining %≤80%)”.

As for `CCCc1cc(C)[nH]c(=O)c1CNC(=O)c1cc(-c2ccc(N3CCN(Cc4ccc5c(c4)CN(N4CCC(=O)NC4=O)C5=O)CC3)nc2)cc2c1cnn2C(C)C` [GT-08418, 6-(6-(4-((2-(2,4-dioxotetrahydropyrimidin-1(2H)-yl)-1-oxoisoindolin-5-yl)methyl)piperazin-1-yl)pyridin-3-yl)-1-isopropyl-N-((6-methyl-2-oxo-4-propyl-1,2-dihydropyridin-3-yl)methyl)-1H-indazole-4-carboxamide], the “Degradation of substrate protein EZH2 (substrate protein remaining %)” value on EZH2 is on record as “A (0%≤substrate protein remaining %≤80%)”.

For `CCCc1cc(C)[nH]c(=O)c1CNC(=O)c1cc(-c2ccc(N3CCN(Cc4ccc5c(c4)C(=O)N(N4CCC(=O)NC4=O)C5=O)CC3)nc2)cc2c1cnn2C(C)C` [GT-08419, 6-(6-(4-((2-(2,4-dioxotetrahydropyrimidin-1(2H)-yl)-1,3-dioxoisoindolin-5-yl)methyl)piperazin-1-yl)pyridin-3-yl)-1-isopropyl-N-((6-methyl-2-oxo-4-propyl-1,2-dihydropyridin-3-yl)methyl)-1H-indazole-4-carboxamide], the “Degradation of substrate protein EZH2 (substrate protein remaining %)” value on EZH2 is given as “A (0%≤substrate protein remaining %≤80%)”.

For the compound `CCCc1cc(C)[nH]c(=O)c1CNC(=O)c1cc(-c2ccc(N3CCC(N(C)Cc4ccc5c(c4)CN(N4CCC(=O)NC4=O)C5=O)CC3)nc2)cc2c1cnn2C(C)C` [GT-08420, 6-(6-(4-(((2-(2,4-dioxotetrahydropyrimidin-1(2H)-yl)-1-oxoisoindolin-5-yl)methyl)(methyl)amino)piperidin-1-yl)pyridin-3-yl)-1-isopropyl-N-((6-methyl-2-oxo-4-propyl-1,2-dihydropyridin-3-yl)methyl)-1H-indazole-4-carboxamide], the “Degradation of substrate protein EZH2 (substrate protein remaining %)” value at EZH2 is “A (0%≤substrate protein remaining %≤80%)”.

Regarding `CCN(c1cc(-c2ccc(N3CCN(C4CCN(CC5CCN(c6cccc7c6C(=O)N(N6CCC(=O)NC6=O)C7=O)CC5)CC4)CC3)cc2)cc(C(=O)NCc2c(C)cc(C)[nH]c2=O)c1C)C1CCOCC1` [GT-08525, N-((4,6-dimethyl-2-oxo-1,2-dihydropyridin-3-yl)methyl)-4′-(4-(1-((1-(2-(2,4-dioxotetrahydropyrimidin-1(2H)-yl)-1,3-dioxoisoindolin-4-yl)piperidin-4-yl)methyl)piperidin-4-yl)piperazin-1-yl)-5-(ethyl(tetrahydro-2H-pyran-4-yl)amino)-4-methyl-[1,1′-biphenyl]-3-carboxamide], the “Degradation of substrate protein EZH2 (substrate protein remaining %)” value at EZH2 is “A (0%≤substrate protein remaining %≤80%)”.

Broadly, the inhibition is the share of the control response that was lost under treatment.
